Source: patent US8581584B2, “Membrane proteins, mechanisms of action and uses thereof” (priority 2010, dated 2013)

Target: M2 conductance domain (residues 22-62) (Influenza A virus, UniProt P0DOF5, C50S)
Format: biochemical, influenza A Udorn/1972 virus

SMILES: NC12CC3CC(CC(C3)C1)C2 [amantadine]
- blockage of proton uptake: ~80%
- proton flux, initial slope of proton uptake per tetramer vs time: 30 protons per tetramer per second
